Experimental data taken from ChEMBL document CHEMBL1201862, “PubChem BioAssay data set” (2004).
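Growth conditions: 96-well plates. Treatment: test compound, 48 hours, 5 concentrations. Analysis: linear interpolation between bracketing concentrations; unreached endpoints set to highest concentration. GI50 is the concentration that inhibits growth by half.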 Calls of active or inactive are those of the source. Cut-off read from the data, not from the text of the source: active = GI50 up to about 1.1 µM and inactive = higher.

Legend:
Experiment in all cases: NCI-60 cell line screen, 48 h
[1] = test system: 786-0
[2] = test system: A498
[3] = test system: A549
[4] = test system: ACHN
[5] = test system: BT-549
[6] = test system: CAKI-1
[7] = test system: COLO 205
[8] = test system: HCC 2998
[9] = test system: HCT-116
[10] = test system: HOP-62
[11] = test system: HOP-92
[12] = test system: HT-29
[13] = test system: Hs-578T
[14] = test system: IGROV-1
[15] = test system: KM12
[16] = test system: LOX IMVI
[17] = test system: M14
[18] = test system: MDA-MB-231
[19] = test system: MDA-N
[20] = test system: MOLT-4
[21] = test system: NCI-H226
[22] = test system: NCI-H460
[23] = test system: NCI-H522
[24] = test system: NCI/ADR-RES
[25] = test system: OVCAR-4
[26] = test system: OVCAR-8
[27] = test system: SF-295
[28] = test system: SF-539
[29] = test system: SK-MEL-2
[30] = test system: SK-MEL-5
[31] = test system: SNB-19
[32] = test system: SNB-75
[33] = test system: TK-10
[34] = test system: UACC-62
[35] = test system: UO-31
[36] = test system: CCRF-CEM
[37] = test system: EKVX
[38] = test system: HCT-15
[39] = test system: HL-60
[40] = test system: K562
[41] = test system: MCF7
[42] = test system: MDA-MB-435
[43] = test system: Malme-3M
[44] = test system: OVCAR-5
[45] = test system: PC-3
[46] = test system: RPMI-8226
[47] = test system: RXF 393
[48] = test system: SF-268
[49] = test system: SK-MEL-28
[50] = test system: SK-OV-3
[51] = test system: SN12C
[52] = test system: SW-620
[53] = test system: U-251
[54] = test system: UACC-257

Question: For `Cc1cc(/N=C/c2c(CO)cnc(C)c2O)c(/N=C/c2c(CO)cnc(C)c2O)cc1C.[Zn+2]`, which GI50 [1] is on record?
Answer: The GI50 was > 100 µM (inactive).

Question: What about the GI50 [2] of the same compound?
Answer: Its GI50 is > 100 µM (inactive).

Question: And the GI50 [3]?
Answer: Its GI50 is > 100 µM (inactive).

Question: What about the GI50 [4] of the same compound?
Answer: Its GI50 is > 100 µM (inactive).

Question: What about the GI50 [5] of the same compound?
Answer: The GI50 was > 100 µM (inactive).

Question: What about the GI50 [6] of the same compound?
Answer: Its GI50 is > 100 µM (inactive).

Question: What about the GI50 [7] of the same compound?
Answer: The GI50 was > 100 µM (inactive).

Question: What about the GI50 [8] of the same compound?
Answer: Its GI50 is > 100 µM (inactive).

Question: And the GI50 [9]?
Answer: Its GI50 is > 100 µM (inactive).

Question: What about the GI50 [10] of the same compound?
Answer: Its GI50 is > 100 µM (inactive).

Question: And the GI50 [11]?
Answer: The GI50 was > 100 µM (inactive).

Question: And the GI50 [12]?
Answer: The GI50 was > 100 µM (inactive).

Question: What about the GI50 [13] of the same compound?
Answer: The GI50 was > 100 µM (inactive).

Question: And the GI50 [14]?
Answer: The GI50 was > 100 µM (inactive).

Question: And the GI50 [15]?
Answer: The GI50 was > 100 µM (inactive).

Question: What about the GI50 [16] of the same compound?
Answer: The GI50 was > 100 µM (inactive).

Question: What about the GI50 [17] of the same compound?
Answer: Its GI50 is > 100 µM (inactive).

Question: What about the GI50 [18] of the same compound?
Answer: Its GI50 is > 100 µM (inactive).

Question: And the GI50 [19]?
Answer: The GI50 was > 100 µM (inactive).

Question: And the GI50 [20]?
Answer: Its GI50 is > 100 µM (inactive).

Question: And the GI50 [21]?
Answer: Its GI50 is > 100 µM (inactive).

Question: What about the GI50 [22] of the same compound?
Answer: Its GI50 is > 100 µM (inactive).

Question: What about the GI50 [23] of the same compound?
Answer: The GI50 was > 100 µM (inactive).

Question: What about the GI50 [24] of the same compound?
Answer: The GI50 was > 100 µM (inactive).

Question: What about the GI50 [25] of the same compound?
Answer: The GI50 was > 100 µM (inactive).

Question: What about the GI50 [26] of the same compound?
Answer: The GI50 was > 100 µM (inactive).

Question: What about the GI50 [27] of the same compound?
Answer: The GI50 was > 100 µM (inactive).

Question: And the GI50 [28]?
Answer: Its GI50 is > 100 µM (inactive).

Question: And the GI50 [29]?
Answer: Its GI50 is > 100 µM (inactive).

Question: And the GI50 [30]?
Answer: Its GI50 is > 100 µM (inactive).

Question: What about the GI50 [31] of the same compound?
Answer: The GI50 was > 100 µM (inactive).

Question: What about the GI50 [32] of the same compound?
Answer: Its GI50 is > 100 µM (inactive).

Question: And the GI50 [33]?
Answer: Its GI50 is > 100 µM (inactive).

Question: And the GI50 [34]?
Answer: The GI50 was > 100 µM (inactive).

Question: What about the GI50 [35] of the same compound?
Answer: The GI50 was > 100 µM (inactive).

Question: `N#Cc1c(-c2ccc(Cl)cc2)c(C#N)c(=O)n(NS(=O)(=O)c2ccccc2)c1O` was tested. Which GI50 [1] did it give?
Answer: The GI50 was 29.8 µM (inactive).

Question: And the GI50 [2]?
Answer: The GI50 was 24.9 µM (inactive).

Question: What about the GI50 [3] of the same compound?
Answer: Its GI50 is 28.8 µM (inactive).

Question: What about the GI50 [4] of the same compound?
Answer: The GI50 was 25.9 µM (inactive).

Question: What about the GI50 [5] of the same compound?
Answer: Its GI50 is 13.4 µM (inactive).

Question: What about the GI50 [6] of the same compound?
Answer: Its GI50 is 21 µM (inactive).

Question: And the GI50 [36]?
Answer: The GI50 was 25.2 µM (inactive).

Question: And the GI50 [7]?
Answer: Its GI50 is 29.9 µM (inactive).

Question: What about the GI50 [37] of the same compound?
Answer: The GI50 was 28.1 µM (inactive).

Question: And the GI50 [8]?
Answer: The GI50 was 13.8 µM (inactive).

Question: What about the GI50 [9] of the same compound?
Answer: Its GI50 is 16.2 µM (inactive).

Question: What about the GI50 [38] of the same compound?
Answer: Its GI50 is 22.3 µM.

Question: And the GI50 [39]?
Answer: The GI50 was 16.1 µM (inactive).

Question: And the GI50 [10]?
Answer: Its GI50 is 27 µM (inactive).

Question: And the GI50 [11]?
Answer: The GI50 was 19.3 µM (inactive).

Question: What about the GI50 [12] of the same compound?
Answer: The GI50 was 34.8 µM (inactive).

Question: What about the GI50 [13] of the same compound?
Answer: The GI50 was 19.7 µM (inactive).

Question: And the GI50 [14]?
Answer: Its GI50 is 24.2 µM (inactive).

Question: What about the GI50 [40] of the same compound?
Answer: Its GI50 is 29.1 µM (inactive).

Question: What about the GI50 [15] of the same compound?
Answer: The GI50 was 23.7 µM (inactive).

Question: What about the GI50 [16] of the same compound?
Answer: Its GI50 is 15.1 µM (inactive).

Question: What about the GI50 [17] of the same compound?
Answer: Its GI50 is 29.6 µM (inactive).

Question: And the GI50 [41]?
Answer: The GI50 was 16.9 µM (inactive).

Question: What about the GI50 [18] of the same compound?
Answer: The GI50 was 23.3 µM (inactive).

Question: What about the GI50 [42] of the same compound?
Answer: The GI50 was 34.3 µM (inactive).

Question: And the GI50 [19]?
Answer: Its GI50 is 19.8 µM (inactive).

Question: What about the GI50 [20] of the same compound?
Answer: The GI50 was 22.5 µM (inactive).

Question: What about the GI50 [43] of the same compound?
Answer: Its GI50 is 49 µM (inactive).

Question: And the GI50 [21]?
Answer: Its GI50 is 28.2 µM (inactive).

Question: What about the GI50 [22] of the same compound?
Answer: Its GI50 is 19.9 µM (inactive).

Question: What about the GI50 [23] of the same compound?
Answer: Its GI50 is 27.9 µM (inactive).

Question: What about the GI50 [24] of the same compound?
Answer: The GI50 was 35.3 µM (inactive).

Question: What about the GI50 [25] of the same compound?
Answer: The GI50 was 27.1 µM (inactive).

Question: And the GI50 [44]?
Answer: The GI50 was 31 µM (inactive).

Question: What about the GI50 [26] of the same compound?
Answer: The GI50 was 28.8 µM (inactive).

Question: What about the GI50 [45] of the same compound?
Answer: The GI50 was 19.6 µM (inactive).

Question: And the GI50 [46]?
Answer: The GI50 was 6.44 µM (inactive).

Question: And the GI50 [47]?
Answer: The GI50 was 21.8 µM (inactive).

Question: And the GI50 [48]?
Answer: Its GI50 is 35.6 µM (inactive).

Question: And the GI50 [27]?
Answer: The GI50 was 30.1 µM (inactive).

Question: What about the GI50 [28] of the same compound?
Answer: The GI50 was 20.7 µM (inactive).

Question: And the GI50 [49]?
Answer: Its GI50 is 26.4 µM (inactive).

Question: And the GI50 [29]?
Answer: Its GI50 is 19.6 µM (inactive).

Question: What about the GI50 [30] of the same compound?
Answer: The GI50 was 17.1 µM (inactive).

Question: And the GI50 [50]?
Answer: The GI50 was 21.5 µM (inactive).

Question: What about the GI50 [51] of the same compound?
Answer: Its GI50 is 13.6 µM (inactive).

Question: What about the GI50 [31] of the same compound?
Answer: The GI50 was 37 µM (inactive).

Question: And the GI50 [32]?
Answer: Its GI50 is 34 µM (inactive).

Question: What about the GI50 [52] of the same compound?
Answer: Its GI50 is 30.6 µM (inactive).

Question: And the GI50 [33]?
Answer: The GI50 was 39.1 µM (inactive).

Question: And the GI50 [53]?
Answer: Its GI50 is 32.7 µM (inactive).

Question: And the GI50 [54]?
Answer: The GI50 was 27.7 µM (inactive).

Question: And the GI50 [34]?
Answer: The GI50 was 15.1 µM (inactive).
